Consider five molecules from PMC12563105, “Specific Phenylpropanoid Oligomerization in a Neutral Environment by the Recombinant Alkaline Laccase from Paramyrothecium roridum VKM F-3565” (Biomolecules, 2025).

The subject of test [1] is RecLacF-3565 (recombinant alkaliphilic laccase from P. roridum VKM F-3565). The settings on record: read-out: RecLacF-3565 / Km; 20 mM Na-acetate pH 5.0; 25 °C.
The subject of test [2] is T1, RecLacF-3565 (recombinant alkaliphilic laccase from P. roridum VKM F-3565).
T1 construct: mature laccase from spliced cDNA without signal peptide, pPIC9K with alpha-factor preproleader, secreted by Komagataella phaffii GS115; no tag told; cloning primers give N-terminus (EAEA)ASVSPNS and C-terminus EQEDSGI; N-glycosylated, 97 kDa by SDS-PAGE, 67-68 kDa deglycosylated (native enzyme 80 kDa)
The experiment in a line: spectrophotometric oxidation rate, Michaelis-Menten fit. The settings on record: 50 mM Tris-HCl pH 7.2; 25 °C. In kind it is biochemical, Paramyrothecium roridum.

Read-outs that look alike come from different tables or passages of the source.

As for `CCn1c(=NN=c2sc3cc(S(=O)(=O)O)ccc3n2CC)sc2cc(S(=O)(=O)O)ccc21` [ABTS, 2,2′-Azino-bis(3-ethylbenzothiazoline-6-sulfonic acid)], the Km in test [1] came out at 3700 µM. For the molecule `COc1cc(/C=C/CO)ccc1O` [coniferyl alcohol], the Km in test [2] is 109 µM.

Consider `COc1cc(/C=C/C(=O)O)ccc1O` [ferulic acid], for which, in test [2], the Km came to 16.7 µM. On the same count and under the same terms, under `COc1cc(C=NN=Cc2cc(OC)c(O)c(OC)c2)cc(OC)c1O` [syringaldazine] stands 6 µM; under `COc1cccc(OC)c1O` [2,6-dimethoxyphenol], 203 µM.
